Assay results published in patent US20060205751A1, “Novel compounds” (SmithKline Beecham Corporation, priority 2003, published 2006).

melting point: 79.5 to 80.5 °C
Structure (SMILES): O=C(O)c1cccc(-c2cc3cc(Cl)c(Cl)cc3[nH]2)c1 [Example 1, 3-(5,6-Dichloro-1H-indol-2-yl)-benzoic acid]
